Values joined by “and” are separate entries in the source; they are usually repeats but may differ in a detail not shown here. Equal entries are not always repeated. Where two headings read alike, the source gives them in different places.
How the values were obtained:
[1] = tested on: S. Typhimurium (SL1344 with sifB::gfp) in RAW 264.7 macrophages; test: SAFIRE assay: bacterial accumulation (GFP) in macrophages; type: cell-based; settings: Salmonella enterica, RAW264.7, 16 h, read-out: IC50 in SAFIRE
Description: FIG. 1A-D. D66 is a small molecule that prevents S. Typhimurium replication and/or survival in macrophages. A). Structure of D66. B) RAW264.7 macrophage-like cells were infected with S. Typhimurium harboring a chromosomal sifB: : gfp reporter, treated with DMSO or D66 at two hours after infection, and monitored for bacterial accumulation (GFP+Macrophage Area) over 16 hours using the SAFIRE (Screen for Anti-infectives using Fluorescence microscopy of Intracellular Enterobacteriaceae) assay. The IC50 value is indicated. Mean and SD of biological duplicates with technical duplicates across 9 dilutions of D66. C, D) CFU assays were performed with RAW264.7 or HeLa cells infected with S. Typhimurium SL1344 or 14028 for two hours and treated for 16 hours with DMSO or 1.5-fold dilutions of D66, prior to lysis and plating for CFU. Symbols on the Y-axes are the CFU value from DMSO-treated samples. […]
SAFIRE and CFU assays: SAFIRE assays were performed with RAW 264.7 (TIB-71) macrophages seeded at […] in 100 μL of complete DMEM in 96-well tissue culture plates (Greiner, 655180) and incubated at 37° C. with 5% CO2. […] After 16 hours of treatment, samples were imaged on a spinning disk confocal microscope, and a MATLAB algorithm calculated bacterial accumulation (GFP fluorescence) within macrophages, as defined by DAPI (DNA) and MitoTracker Red, a vital dye for mitochondrial voltage. […]

[2] = tested on: S. Typhimurium SL1344 or 14028 in HeLa cells; test: CFU assay in infected HeLa cells; type: cell-based
Description: FIG. 1A-D. D66 is a small molecule that prevents S. Typhimurium replication and/or survival in macrophages. A). Structure of D66. B) RAW264.7 macrophage-like cells were infected with S. Typhimurium harboring a chromosomal sifB: : gfp reporter, treated with DMSO or D66 at two hours after infection, and monitored for bacterial accumulation (GFP+Macrophage Area) over 16 hours using the SAFIRE (Screen for Anti-infectives using Fluorescence microscopy of Intracellular Enterobacteriaceae) assay. The IC50 value is indicated. Mean and SD of biological duplicates with technical duplicates across 9 dilutions of D66. C, D) CFU assays were performed with RAW264.7 or HeLa cells infected with S. Typhimurium SL1344 or 14028 for two hours and treated for 16 hours with DMSO or 1.5-fold dilutions of D66, prior to lysis and plating for CFU. Symbols on the Y-axes are the CFU value from DMSO-treated samples. The IC50 values are indicated. Mean and SEMs of biological triplicates with technical duplicates across 8 dilutions of D66.
CFU assays were performed with RAW 264.7 cells seeded as above or with Hela cells (ATCC CCL-2) seeded at 1x10^4 cells per 96-well. Cells were infected as described above with either S. Typhimurium SL1344 or 14028, as indicated at an approximate MOI of 30 bacteria per RAW 264.7 cell and 150 bacteria per HeLa cell. Plates were centrifuged and gentamicin treated as above. […]

E. coli (K-12) = test: Minimum inhibitory concentration determination in broth; type: cell-based; settings: for MIC50: Escherichia coli
Description: (§1) Bacterial Strains: S. Typhimurium (SL1344), S. Typhimurium (14028s, ATCC), S. Typhimurium ΔacrAB (ALR1257), E. coli (K-12 derivative BW25113 (wild-type)), E. coli K-12 AtolC (JP313 delta tolC; also called AD3644 and JLD1285).
(§2) Minimum inhibitory concentration determination: Overnight LB-grown cultures were diluted in LB or MHB to an optical density (OD600) of 0.01 and distributed into polystyrene 96-well flat-bottom plates (Greiner, 655185). […] The final DMSO concentration was at or below 2%. Where indicated, PMB [0.5 μg/mL] was added prior to D66. Plates were grown at 37° C. with shaking and OD600 was monitored (BioTek Synergy H1 or BioTek Eon). MICs were defined as the concentration at which 95% of growth was inhibited (OD600).

E. coli K-12 ΔtolC = test: as above; type: cell-based; settings: for MIC50: Escherichia coli
Description: as §1, §2

S. Typhimurium ΔacrAB = test: as above; type: cell-based; settings: for MIC50: Salmonella enterica, TYPHIMURIUM
Description: as §1, §2

[3] = Murine pharmacokinetic analysis; type: in vivo, C57BL/6 mice; settings: mice, 50 mg/kg IP
Description: FIG. 7A-B. D66 pharmacokinetic parameters. Values were calculated by compartmental modeling using Phoenix WinNonlin. Data fit a two-compartment model (r=0.9976) with bolus dosing. A) Decay curve. B) Parameter values.
Murine pharmacokinetic analyses and infections: Three female C57BL/6 mice were injected intraperitoneally (IP) with 50 mg/kg of D66 formulated in DMSO (50 μL). […] Three mice were initially dosed and observed for 24 hours to determine tolerability. […] Plasma D66 levels were measured using a liquid chromatography coupled to tandem mass spectrometry (LC/MS/MS) assay by the University of Colorado Cancer Center Drug Discovery and Development Shared Resource. The assay used monitored the transition of D66 (376 m/z->176 m/z) and was linear from 1-1000 ng/ml with an accuracy and precision of 90.3%+10.4% (% CV) based on quality control (QC) samples included with analyzed unknown samples.

For `O=C(Nc1cc(Cl)cc(Cl)c1)N1CCCN(Cc2ccccc2)CC1` [D66], the IC50 [1] was 6 ± 0.5 µM, the “ability to reduce bacterial load in Hela cells” value [2] was “little effect” and the “reduction in CFU” value [2] was 5-10 fold. The MIC50 (E. coli (K-12); LB, read-out: MIC50 in LB) was > 150 µM and > 57 µg/mL, the MIC50 (E. coli (K-12); MHB, read-out: MIC50 in MHB) was greater than 150 µM and the “cMIC95 in LB” value (E. coli (K-12); LB) was greater than 150 µM. For the same molecule, the “cMIC95 in MHB” value (E. coli (K-12); MHB) was greater than 150 µM, the “cMIC95 in LB” value (E. coli K-12 ΔtolC; E. coli K-12 ΔtolC, LB) was 52 µM and the “cMIC95 in MHB” value (E. coli K-12 ΔtolC; E. coli K-12 ΔtolC, MHB) was 43 µM. For the same molecule, the MIC50 (E. coli K-12 ΔtolC; read-out: MIC50 in LB) was 47 µM and 18 µg/mL, the MIC50 (E. coli K-12 ΔtolC; read-out: MIC50 in MHB) was 36 ± 1 µM and the “cMIC95 in LB” value (S. Typhimurium ΔacrAB; S. Typhimurium ΔacrAB, LB) was 142 µM. The “cMIC95 in MHB” value (S. Typhimurium ΔacrAB; S. Typhimurium ΔacrAB, MHB) was 116 µM, the MIC50 (S. Typhimurium ΔacrAB; read-out: MIC50 in LB) was 128 µM and 48 µg/mL and the MIC50 (S. Typhimurium ΔacrAB; read-out: MIC50 in MHB) was 81 ± 6 µM. For the same molecule, the half-life ([3]; female, C57BL/6, mouse, plasma, two-compartment model, read-out: elimination (terminal) half-life (converted)) was 3 h, the peak serum concentration [3] was 3.5 µM and the “steady state volume of distribution (Vss)” value [3] was 43.3 L/kg. The “elimination (terminal) half-life” value ([3]; two-compartment model, 50 mg/kg) was 3.0 h.
